{"source": "patent US20060122214A1", "about": "“Agent for prophylaxis and treatment of angiostenosis” (priority 1999, published 2006)", "key": {"[1]": {"system": "vascular smooth muscle cells (VSMC) derived from WKY rat aortic tunica media", "experiment": "Migration ability of cultured VSMC (96 well chemotaxis chamber, A595)", "assay_type": "cell-based", "conditions": "for A595 (VSMC migrated to the lower surface of the membrane): Y-27632 10 μM, cultured for 18 hours", "description": "(2) Effect on Migration Ability of Cultured VSMC (Method) A serum free medium or a medium containing 10% serum, which contained the test drug (Y-27632, 10 μM), was placed in a 96 well chemotaxis lower chamber, and a serum free medium containing the test drug was placed in 96 well chemotaxis upper and lower chambers where VSMC were suspended, and then cultured for 18 hours. The VSMC migrated to the lower surface of the membrane were stained with QuickDiff (International Reagents Corporation) and absorbance was measured at A595."}, "[2]": {"system": "left carotid artery intima of WKY rats", "experiment": "Proliferation of regenerated intima after balloon injury of carotid artery in rat", "assay_type": "in vivo", "conditions": "30 mg/kg intraperitoneal, consecutively from 3 days before operation, 14 days after the operation, control 1.88±0.24, sham 0.03±0.01", "description": "Effect on Proliferation of Regenerated Intima after Balloon Injury of Carotid Artery in Rat 2F Fogarty catheter was inserted from the outer left carotid artery of 8-week-old male WKY rats under anesthesia and inflated in the left common carotid artery, whereby intima was detached in the entire length. Physiological saline was consecutively administered to a control group, and the test drug (Y-27632) (30 mg/kg) was consecutively administered to a test group, wherein both groups underwent intraperitoneal administration starting from 3 days before operation. The rats free of the intima detachment treatment were used as a sham group. At 14 days after the operation, left carotid artery was subjected to perfusion fixation and removed thereafter, stained with HE, and a new intima thickness/medial thickness (I/M) ratio was measured."}, "[3]": {"system": "vascular smooth muscle cells (VSMC) derived from WKY rat aortic tunica media", "experiment": "Proliferation ability of VSMC ([3H] thymidine uptake method)", "assay_type": "cell-based", "conditions": "for [3H] thymidine uptake: 24 hours of culture, n = 5", "description": "(1) Effect on Proliferation Ability of Vascular Smooth Muscle Cells (VSMC) Derived from WKY Rat Aortic Tunica Media (Method) VSMC were separated and cultured according to the method of Yamamoto et al. (Yamamoto H, et al., Br. J. Exp. Pathol. 64; 156-165, 1983). The proliferation ability of VSMC was determined according to the method of Berk et al. [[^3H] thymidine uptake method; Berk B C, et al., J. Cell Physiol. 137; 391-401, 1988]. A DMEM medium containing 10% serum was changed every two days and the cells were cultured on a dish. The cells after 5 to 10 passages were subjected to the experiment. VSMC were cultured in a medium containing 1.0% serum for 24 hours and in a serum free medium for 24 hours to synchronize the cell cycle. The VSMC were transferred to a medium containing 10% fetal calf serum or a serum free medium and [^3H] thymidine (2 μCi/ml) was added to each medium to label VSMC. The test drug (Y-27632) (10 μM or 30 μM) waw simultaneously added, and after 24 hours of culture, VSMC were recovered, admixed with a scintillator (ACSII, Amersham) and subjected to the measurement of radioactivity by a liquid scintillation counter (LS6500, Beckman), based on which the [^3H] thymidine uptake was measured."}}, "data": [{"smiles": "C[C@@H](N)[C@H]1CC[C@H](C(=O)Nc2ccncc2)CC1", "note": "[Compound Y-27632, (+)-trans-4-(1-aminoethyl)-1-(4-pyridylcarbamoyl)cyclohexane 2HCl.1H2O]", "values": [{"measurement": "A595 (VSMC migrated to the lower surface of the membrane)", "setting": "[1]; +10% FCS", "value": "0.036 ± 0.010", "unit": "arbitrary unit/well"}, {"measurement": "A595 (VSMC migrated to the lower surface of the membrane)", "setting": "[1]; FCS-Free", "value": "0.007 ± 0.003", "unit": "arbitrary unit/well"}, {"measurement": "effect on migration ability of VSMC (in words)", "setting": "[1]; both medium containing 10% serum and serum free medium", "value": "suppressed the migration ability"}, {"measurement": "new intima thickness/medial thickness (I/M) ratio", "setting": "[2]", "value": "0.46±0.22"}, {"measurement": "[3H] thymidine uptake", "setting": "[3]; +10% FCS, Y-27632 10 μM", "value": "360153 ± 10425", "unit": "dpm/dish"}, {"measurement": "[3H] thymidine uptake", "setting": "[3]; +10% FCS, Y-27632 30 μM", "value": "366089 ± 12882", "unit": "dpm/dish"}, {"measurement": "[3H] thymidine uptake", "setting": "[3]; FCS-free medium, Y-27632 10 μM", "value": "150381 ± 6515", "unit": "dpm/dish"}, {"measurement": "[3H] thymidine uptake", "setting": "[3]; FCS-free medium, Y-27632 30 μM", "value": "127767 ± 2482", "unit": "dpm/dish"}, {"measurement": "effect on [3H] thymidine uptake (in words)", "setting": "[3]; serum stimulation group and control group (serum free)", "value": "did not affect"}]}]}
